# In paper PMC4434089 (Biotechnology, Biotechnological Equipment, 2014):
# “And” between values parts separate entries of the source, which are not always exact repeats. Equal values may be shown once. Marks after values point to notes of the source that are not given here.
# What was measured:
# amylin [1] = test system: amylin; design: method as in 2 sources, ref 23 = [23]; PMID 9878384; doi:10.1006/jmbi.1998.2299; Goldsbury C Kistler J Aebi U Arvinte T Cooper GJS J Mol Biol. 1999 285 33 39 9878384 10.1006/jmbi.1998.2299 ||| ref 26 = [26]; PMID 9216085; doi:10.1006/jsbi.1997.3858; Goldsbury CS Cooper GJS Goldie KN Muller SA Saafi EL Gruijters WTM Misur MP J Struct Biol. 1997 119 17 27 http://dx.doi.org/10.1006/jsbi.1997.3858 9216085 10.1006/jsbi.1997.3858; settings: cited from earlier work
# amylin [2] = experiment: NTA of amylin aggregation, alone or with amylin derivatives; type: biochemical, human; settings: for Concentration of aggregates 100–150 nm, 10 min / Concentration of aggregates 200–300 nm, 10 min / Concentration of aggregates 150–200 nm, 10 min / Concentration of aggregates 100–150 nm, 24 h / Concentration of aggregates 200–300 nm, 24 h / Concentration of aggregates 150–200 nm, 24 h: amylin 50 μmol L^−1 alone (A) or with 250 μmol L^−1 derivative, pH 7.4, duplicate; for Concentration of aggregates 100–150 nm, 10 min: 10 mmol L^−1 sodium phosphate, 50 mmol L^−1 NaCl; for Concentration of aggregates 100–150 nm, 10 min / Concentration of aggregates 150–200 nm, 10 min: p < 0.05 less than A: n1, n5, m5; for Concentration of aggregates 200–300 nm, 10 min: p < 0.05 less than A: n1, n3, n5, m1, m2, m3, m4, m5; for Concentration of aggregates 100–150 nm, 24 h: p < 0.05 less than A: n1, n2, m5, significantly more: m2; for Concentration of aggregates 200–300 nm, 24 h: p < 0.05 less than A: n1, n2, n3, n4, n5, m5; for Concentration of aggregates 150–200 nm, 24 h: p < 0.05 less than A: n1, n2, n5, m5; for implied effect on fibrillogenesis of amylin: NTA compared with previously published reports; for number of 200–300 nm aggregates at 24 h vs amylin only: amylin:derivative 50:250 μmol L^−1, p < 0.05; for effect on amylin aggregation over 24 h: all size ranges, amylin:derivative 50:250 μmol L^−1, vs amylin only; for concentration of 200–300 nm aggregates, with derivative: similar to or more than amylin only
# Procedure: NTA measurements were performed with a NanoSight LM20 instrument (NanoSight, United Kingdom) equipped with a 640 nm laser and a temperature controlled sample chamber. […] The sample temperature was maintained at 37 °C for the entire duration of the experiment. These experimental conditions were similar to that used for a previously reported cytotoxicity experiment,[73] thus allowing correlation of results obtained from the two techniques. […] Once again, samples were maintained at 37 °C and 60 s video footage were recorded every 10 min for the first hour and then at 24 h. All videos were captured with the single shutter and gain modes. Analysis was performed using NanoSight NTA version 2.2 software with a viscosity setting of 0.70.
# full length amylin = test system: full length amylin; design: method as in 2 sources, one per row (each row's own in cited_ref): ref 58 = [58]; PMID 14565847; doi:10.1042/BJ20030852; Jaikaran E Nilsson MR Clark A Biochem J. 2004 377 709 716 14565847 10.1042/BJ20030852 PMC1223903 ||| ref 68, 93 = [68]; PMID 12054816; doi:10.1016/S0022-2836(02)00164-X; Scrocchi LA Chen Y Waschuk S Wang F Cheung S Darabie AA McLaurin J Fraser PE J Mol Biol. 2002 318 697 706 12054816 10.1016/S0022-2836(02)00164-X || [93]; PMID 12648568; doi:10.1016/s1047-8477(02)00630-5; Scrocchi LA Ha K Chen Y Wu L Wang F Fraser PE J Struct Biol. 2003 141 218 227 http://dx.doi.org/10.1016/s1047-8477(02)00630-5 12648568 10.1016/s1047-8477(02)00630-5; settings: cited from earlier work
# [3] = test system: amylin-mediated cytotoxicity; design: method as in PMID 20093026; settings: cited from earlier work
Substance,"Concentration of aggregates 100–150 nm, 10 min (amylin [2]; NTA, 10 min, 37 °C)","Concentration of aggregates 200–300 nm, 10 min (amylin [2]; NTA, 10 min, 37 °C)","Concentration of aggregates 150–200 nm, 10 min (amylin [2]; NTA, 10 min, 37 °C)","Concentration of aggregates 100–150 nm, 24 h (amylin [2]; NTA, 37 °C)","Concentration of aggregates 200–300 nm, 24 h (amylin [2]; NTA, 37 °C)","Concentration of aggregates 150–200 nm, 24 h (amylin [2]; NTA, 37 °C)",reduction of amylin-mediated cytotoxicity [3],implied effect on fibrillogenesis of amylin (amylin [2]),number of 200–300 nm aggregates at 24 h vs amylin only (amylin [2]; NTA),effect on amylin aggregation over 24 h (amylin [2]; NTA),inhibitory effect on amylin-mediated cytotoxicity [3],"concentration of 200–300 nm aggregates, with derivative (amylin [2]; NTA)",further results
"Amylin: chemically synthesized full-length human amylin, 37 amino acid long peptide (KCNTATCATQRLANFLVHSSNNFGAILSSTNVGSNTY; Islet amyloid polypeptide; UniProt P10997 34-70, looked up) [reference compound]",5.7 ×10^7 aggregates/mL,7.0 ×10^7 aggregates/mL,5.4 ×10^7 aggregates/mL,2.9 ×10^7 aggregates/mL,2.7 ×10^7 aggregates/mL,2.5 ×10^7 aggregates/mL,,,,,,,"amylin growth rate (AFM) (amylin [1]; AFM): 1.1 nm/min; mass-per-length (MPL) of amylin protofibril (amylin [1]; STEM): 10 kDa nm^−1; approximate rate of amylin aggregation (amylin [1]; estimated from literature AFM and STEM values): ~11 kDa min^−1; critical concentration of 200–300 nm aggregates for amylin-mediated cytotoxicity (amylin [2]; NTA correlated to cytotoxicity data, suggested): more than 2.1 × 10^7 aggregates per millilitre; size of toxic species of amylin (amylin [2]; NTA correlated to previously published cytotoxicity (ref 73), tentatively suggested): 200–300 nm; predominant aggregate size (amylin [2]; NTA, amylin 50 μmol L^−1 alone, 37 °C, pH 7.4, over 24 h): 150–200 nm and 200–300 nm; completion of aggregation (amylin [2]; NTA, amylin alone): complete aggregation of amylin occurs within the first hour; concentration of 100–150, […]–200 and 200–300 nm aggregates after the first hour (amylin [2]; NTA, amylin alone, stable up until 24 h): 2.5 × 10^7 – 3.0 × 10^7 aggregates per millilitre; total concentration of aggregates (amylin [2]; initial NTA, 50 μmol L^−1 amylin): 3.12 × 10^8 aggregates per millilitre"
FLVHSS [n3],2.0 ×10^7 aggregates/mL,1.4* ×10^7 aggregates/mL,1.2 ×10^7 aggregates/mL,3.4 ×10^7 aggregates/mL,1.9* ×10^7 aggregates/mL,2.1 ×10^7 aggregates/mL,more than 40%,increase fibrillogenesis of amylin to an aggregate that is larger than 1000 nm,significantly lower than in samples containing amylin only,small amount of aggregates of all size ranges which increases only marginally over 24 h,,,fibril formation of full length amylin in presence of derivative (full length amylin): fibril formation of full length amylin was enhanced
FLVHSS* [m3],2.1 ×10^7 aggregates/mL,2.1* ×10^7 aggregates/mL,1.6 ×10^7 aggregates/mL,5.9 ×10^7 aggregates/mL,4.7 ×10^7 aggregates/mL,3.9 ×10^7 aggregates/mL,,,,,not to have an inhibitory effect on amylin-mediated cytotoxicity,≥ 2.7 × 10^7 aggregates per millilitre,
NFGAIL* [m4],2.7 ×10^7 aggregates/mL,1.6* ×10^7 aggregates/mL,1.5 ×10^7 aggregates/mL,4.1 ×10^7 aggregates/mL,3.3 ×10^7 aggregates/mL,2.8 ×10^7 aggregates/mL,,,,,not to have an inhibitory effect on amylin-mediated cytotoxicity,≥ 2.7 × 10^7 aggregates per millilitre,
NTAT [n1],0.5* ×10^7 aggregates/mL,0.4* ×10^7 aggregates/mL,0.5* ×10^7 aggregates/mL,0.9* ×10^7 aggregates/mL,0.8* ×10^7 aggregates/mL,1.1* ×10^7 aggregates/mL,more than 40%,inhibit fibrillogenesis,significantly lower than in samples containing amylin only,significantly less than that observed in samples containing disaggregated amylin only,,,
STNVGS [n5],0.1* ×10^7 aggregates/mL,0.5* ×10^7 aggregates/mL,0.1* ×10^7 aggregates/mL,2.4 ×10^7 aggregates/mL,2.0* ×10^7 aggregates/mL,1.4* ×10^7 aggregates/mL,more than 40%,increase fibrillogenesis of amylin to an aggregate that is larger than 1000 nm,significantly lower than in samples containing amylin only,small amount of aggregates of all size ranges which increases only marginally over 24 h,,,
STNVGS* [m5],0.9* ×10^7 aggregates/mL,0.8* ×10^7 aggregates/mL,0.8* ×10^7 aggregates/mL,1.6* ×10^7 aggregates/mL,1.4* ×10^7 aggregates/mL,1.3* ×10^7 aggregates/mL,more than 40%,inhibit fibrillogenesis,significantly lower than in samples containing amylin only,significantly fewer amylin aggregates of all size ranges,,,
TQRLA [n2],4.3 ×10^7 aggregates/mL,3.4 ×10^7 aggregates/mL,2.5 ×10^7 aggregates/mL,1.5* ×10^7 aggregates/mL,2.1* ×10^7 aggregates/mL,1.5* ×10^7 aggregates/mL,more than 40%,increase fibrillogenesis of amylin to an aggregate that is larger than 1000 nm,significantly lower than in samples containing amylin only,,,,"concentrations of 100–150, […]–200 and 200–300 nm aggregates at 10 min vs amylin only (amylin [2]; NTA, 10 min, amylin:derivative 50:250 μmol L^−1, unpaired t-test): not significantly different"
TQRLA* [m2],3.9 ×10^7 aggregates/mL,2.6* ×10^7 aggregates/mL,2.4 ×10^7 aggregates/mL,3.6** ×10^7 aggregates/mL,4.6 ×10^7 aggregates/mL,7.9 ×10^7 aggregates/mL,,,,,not to have an inhibitory effect on amylin-mediated cytotoxicity,≥ 2.7 × 10^7 aggregates per millilitre,
